Measured values: publication PMC8629322 (ACS chemical neuroscience, 2020)

Assays:
[1] = target: T1, PABPN1 (Homo sapiens, UniProt Q86U42); test: PABPN1 fluorescence polarization counter screen; type: binding
T1 sequence (Q86U42 1-306): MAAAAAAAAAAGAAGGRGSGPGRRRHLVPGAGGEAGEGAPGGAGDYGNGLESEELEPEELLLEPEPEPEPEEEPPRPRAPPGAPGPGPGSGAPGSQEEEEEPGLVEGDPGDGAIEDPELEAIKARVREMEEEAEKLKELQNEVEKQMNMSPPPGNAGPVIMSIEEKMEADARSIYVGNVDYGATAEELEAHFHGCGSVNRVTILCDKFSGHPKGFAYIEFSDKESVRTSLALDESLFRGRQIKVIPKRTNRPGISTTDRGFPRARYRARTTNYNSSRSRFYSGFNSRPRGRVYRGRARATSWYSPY

[2] = test system: poly(A); settings: cited from earlier work
[3] = target: T2, biotinylated RNA:GST-MSUT2 ZF (Homo sapiens, UniProt Q6PJT7); test: AlphaScreen orthogonal poly; type: binding; settings: for inhibition activity by AlphaScreen: dose-response, 50 nM biotinylated RNA, 50 nM GST-MSUT2
T2 sequence (Q6PJT7 601-736): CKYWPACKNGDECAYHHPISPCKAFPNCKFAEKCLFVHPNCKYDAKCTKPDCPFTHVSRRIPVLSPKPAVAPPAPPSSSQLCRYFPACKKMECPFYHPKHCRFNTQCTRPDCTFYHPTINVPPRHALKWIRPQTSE

[4] = target: T3, FAM-RNA:MSUT2 ZF complex (poly(A):MSUT2 RNA-protein interaction) (Homo sapiens, UniProt Q6PJT7); test: Fluorescence polarization assay of FAM-poly; type: binding
T3 sequence (Q6PJT7 601-736): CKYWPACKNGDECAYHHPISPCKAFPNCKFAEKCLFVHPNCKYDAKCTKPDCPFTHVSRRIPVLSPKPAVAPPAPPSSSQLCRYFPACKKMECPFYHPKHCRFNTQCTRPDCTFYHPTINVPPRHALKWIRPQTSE

[5] = cited from earlier work
[6] = Cell viability assay; settings: human, HEK293 cells
[7] = test system: hippocampus neuronal loss; settings: rat model of chronic cerebral hypoperfusion; cited from earlier work
[8] = test system: albumin and α1-acid glycoprotein in the plasma; settings: cited from earlier work
[9] = test system: efflux transporters; settings: cited from earlier work
[10] = target: T4, MSUT2 ZF (CCCH domains only) (UniProt Q6PJT7 601-736); test: competition
T4 sequence: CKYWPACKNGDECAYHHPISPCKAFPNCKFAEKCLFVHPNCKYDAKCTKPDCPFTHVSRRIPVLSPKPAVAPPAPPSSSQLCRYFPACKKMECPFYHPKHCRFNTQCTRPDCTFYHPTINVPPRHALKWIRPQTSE

Molecule | IC50 [1] | inhibition activity by AlphaScreen [3] | IC50 [4] | also measured
CC(C)/N=c1\cc2n(-c3ccc(Cl)cc3)c3ccccc3nc-2cc1Nc1ccc(Cl)cc1 [clofazimine] | 23 µM | dose-dependent inhibition activity | 0.731 µM | interaction with poly(A) [2]: little interaction; crossing of the blood-brain barrier [5]: unable to cross the blood-brain barrier; viability at 72 h [6]: > 90%
CNCC[C@H](Oc1cccc2ccccc12)c1cccs1 [duloxetine] | 4.98 µM | dose-dependent inhibition activity | – | neuronal loss in the hippocampus [7]: attenuated neuronal loss in the hippocampus; concentration range of inhibition measured by AS ([3]; over a single log unit): 1.0 to 10 µM; concentration range of inhibitory response in FP assay ([4]; acted over 4 log units): 0.01 to 10 µM; bound to albumin and α1-acid glycoprotein in the plasma [8]: ~ 90%; penetration into cerebral spinal fluid [5]: crosses into cerebral spinal fluid at a much lower rate than other antidepressants; viability at 72 h [6]: > 90%
CC(C(=O)O)c1ccc(-c2ccccc2)c(F)c1 (centres unmarked) [flurbiprofen] | 6.69 µM | – | – | –
CN1C2CCCC1CC(NC(=O)c1nn(C)c3ccccc13)C2 (centres unmarked) [granisetron] | 8.65 µM | – | 0.306 µM | –
OCCOCCN1CCN(C(c2ccccc2)c2ccc(Cl)cc2)CC1 (centres unmarked) [hydroxyzine] | 9.09 µM | – | – | –
CC(C)(C)NC(=O)[C@@H]1CN(Cc2cccnc2)CCN1C[C@@H](O)C[C@@H](Cc1ccccc1)C(=O)N[C@H]1c2ccccc2C[C@H]1O [indinavir] | 35.8 µM | – | 0.247 µM | –
CC(C)(C)NC(=O)[C@@H]1C[C@@H]2CCCC[C@@H]2CN1C[C@@H](O)[C@H](Cc1ccccc1)NC(=O)[C@H](CC(N)=O)NC(=O)c1ccc2ccccc2n1 [saquinavir] | 0.617 µM | dose-dependent inhibition activity | – | efflux transporter substrate [9]: substrate of efflux transporters; brain penetrance [5]: low brain penetrance; viability at 72 h, 40 µM [6]: 65%
AAAAAAAAAAAAAAA (ssRNA) [unlabeled poly(A)15 RNA] | – | – | – | IC50 [10]: 0.29 µM
